Test results reported in patent US20110021565A1, “PIPERIDINE DERIVATIVES AS NK3 ANTAGONISTS” (priority 2007, published 2011).
Like-named read-outs stand apart in the source and are kept apart here.

Molecular target: T1, recombinant human NK3 receptor (Homo sapiens, UniProt P29371)
T1 construct: expressed in transfected cells; host or cells: HEK293 cells, transient expression; membrane preparation
T1 sequence (P29371 1-465): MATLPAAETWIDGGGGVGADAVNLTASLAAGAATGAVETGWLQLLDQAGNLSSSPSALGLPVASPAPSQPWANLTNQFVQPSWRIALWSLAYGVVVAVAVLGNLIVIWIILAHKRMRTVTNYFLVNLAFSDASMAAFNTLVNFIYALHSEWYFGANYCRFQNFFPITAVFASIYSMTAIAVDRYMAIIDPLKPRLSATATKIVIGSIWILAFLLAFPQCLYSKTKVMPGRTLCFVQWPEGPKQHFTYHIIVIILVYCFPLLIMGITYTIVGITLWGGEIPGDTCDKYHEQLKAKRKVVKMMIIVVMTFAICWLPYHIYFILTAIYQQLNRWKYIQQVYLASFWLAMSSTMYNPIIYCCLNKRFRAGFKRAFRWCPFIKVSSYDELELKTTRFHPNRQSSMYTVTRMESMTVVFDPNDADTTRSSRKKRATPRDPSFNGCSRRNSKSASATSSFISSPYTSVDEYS
Assay: [3H]SR142801 competition binding assay
In short: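 Ki derived by Cheng-Prusoff from Hill-fitted IC50 curves, duplicates, 10 μM SB222200 defining nonspecific binding. Radioligand used at KD concentration against compound at 0.0003-10 μM; transiently transfected HEK293 membranes, 5 μg/well, 75 min room temperature, Tris-HCl/MnCl2/phosphoramidon/BSA pH 7.4. Filter-bound counts read by scintillation.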

[1] = [3H]SR142801, membranes of HEK293 cells transiently expressing recombinant human NK3 receptor, read-out: hNK3 Ki
[2] = representative compounds, [3H]SR142801, HEK293 membranes, human NK3 receptor, read-out: Ki NK3 h

| Ki [1] [nM] | Ki [2] [nM] | Structure (SMILES) |
| --- | --- | --- |
| 56 | – | CC(=O)N(C)C1CCN(CCC(C)(C(=O)N[C@H](CO)c2ccc(Cl)cc2)c2ccc(Cl)c(Cl)c2)CC1 (stereo partly drawn) [Example 137, 4-[4-(Acetyl-methyl-amino)-piperidin-1-yl]-N-[1-(4-chloro-phenyl)-2-hydroxy-ethyl]-2-(3,4-dichloro-phenyl)-2-methyl-butyramide (diastereosisomer 2)] |
| 8.1 | – | CC(CCN1CCC(N2CCCC2=O)CC1)(C(=O)NC(c1ccc(C(F)(F)F)cc1)C(F)(F)F)c1ccc(Cl)c(Cl)c1 (stereo not shown) [Example 97, 2-(3,4-Dichloro-phenyl)-2-methyl-4-[4-(2-oxo-pyrrolidin-1-yl)-piperidin-1-yl]-N-[2,2,2-trifluoro-1-(4-trifluoromethyl-phenyl)-ethyl]-butyramide] |
| 13.3 | – | CCN(C1CCN(CCC(C)(C(=O)N[C@H](CO)c2ccc(Cl)c(Cl)c2)c2ccc(Cl)c(Cl)c2)CC1)S(C)(=O)=O (single isomer, unassigned; diastereoisomer 2) [Example 80, 2-(3,4-Dichloro-phenyl)-N-[1-(3,4-dichloro-phenyl)-2-hydroxy-ethyl]-4-[4-(ethyl-methanesulfonyl-amino)-piperidin-1-yl]-2-methyl-butyramide; diastereoisomer 2] |
| 71.4 | – | CC(CCN1CCC(NS(C)(=O)=O)CC1)(C(=O)NCc1ccc(Cl)c(C(F)(F)F)c1)c1ccc(Cl)c(Cl)c1 (stereo not shown) [Example 24, N-(4-Chloro-3-trifluoromethyl-benzyl)-2-(3,4-dichloro-phenyl)-4-(4-methanesulfonyl-amino-piperidin-1-yl)-2-methyl-butyramide] |
| 25.4 | – | CC(NC(=O)C(C)(CCN1CCC(N2CCCC2=O)CC1)c1ccc(Cl)c(Cl)c1)c1ccc(F)c(C(F)(F)F)c1 (stereo not shown) [Example 125, 2-(3,4-Dichloro-phenyl)-N-[1-(4-fluoro-3-trifluoromethyl-phenyl)-ethyl]-2-methyl-4-[4-(2-oxo-pyrrolidin-1-yl)-piperidin-1-yl]-butyramide] |
| 5.1 | 5.1 | CC(=O)N(C)C1CCN(CCC(C)(C(=O)N(C)Cc2ccc(C(F)(F)F)cc2)c2ccc(Cl)c(Cl)c2)CC1 (stereo not shown) [Example 106, 4-[4-(Acetyl-methyl-amino)-piperidin-1-yl]-2-(3,4-dichloro-phenyl)-2,N-dimethyl-N-(4-trifluoromethyl-benzyl)-butyramide] |
| 50.2 | – | CC(=O)N(C1CC1)C1CCN(CCC(C)(C(=O)N[C@H](CO)c2ccc(Cl)c(Cl)c2)c2ccc(Cl)c(Cl)c2)CC1 (single isomer, unassigned; diastereoisomer 2) [Example 145, 4-[4-(Acetyl-cyclopropyl-amino)-piperidin-1-yl]-2-(3,4-dichloro-phenyl)-N-[1-(3,4-dichloro-phenyl)-2-hydroxy-ethyl]-2-methyl-butyramide (diastereoisomer 2)] |
| 382 | – | COCCN(C(C)=O)C1CCN(CCC(C)(C(=O)N[C@@H](CO)c2ccc(Cl)cc2)c2ccc(Cl)c(Cl)c2)CC1 (stereo in doubt) [Example 147, 4-{4-[Acetyl-(2-methoxy-ethyl)-amino]-piperidin-1-yl}-N-[1-(4-chloro-phenyl)-2-hydroxy-ethyl]-2-(3,4-dichloro-phenyl)-2-methyl-butyramide] |
| 4.6 | 4.6 | CN(Cc1cccc(Cl)c1)C(=O)C(C)(CCN1CCC(N2CCCC2=O)CC1)c1ccc(Cl)c(Cl)c1 (stereo not shown) [Example 87, N-(3-Chloro-benzyl)-2-(3,4-dichloro-phenyl)-2,N-dimethyl-4-[4-(2-oxo-pyrrolidin-1-yl)-piperidin-1-yl]-butyramide] |
| 2.4 | 2.4 | CN(Cc1ccc(Cl)c(C(F)(F)F)c1)C(=O)C(C)(CCN1CCC(N(C)S(C)(=O)=O)CC1)c1ccc(Cl)c(Cl)c1 (stereo not shown) [Example 46, N-(4-Chloro-3-trifluoromethyl-benzyl)-2-(3,4-dichloro-phenyl)-4-[4-(methanesulfonyl-methyl-amino)-piperidin-1-yl]-2,N-dimethyl-butyramide] |
| 203 | – | CN(Cc1ccc(-c2ccncc2)cc1)C(=O)C(C)(CCN1CCC(NS(C)(=O)=O)CC1)c1ccc(Cl)c(Cl)c1 (stereo not shown) [Example 20, 2-(3,4-Dichloro-phenyl)-4-(4-methanesulfonyl-amino-piperidin-1-yl)-2,N-dimethyl-N-(4-pyridin-4-yl-benzyl)-butyramide] |
| 280 | – | CN(Cc1cccc(C(F)(F)F)c1)C(=O)C(CCN1CCC(NS(C)(=O)=O)CC1)c1ccc(Cl)c(Cl)c1 (stereo not shown) [Example 40, 2-(3,4-Dichloro-phenyl)-4-(4-methanesulfonyl-amino-piperidin-1-yl)-N-methyl-N-(3-trifluoromethyl-benzyl)-butyramide] |
| 1.2 | 1.2 | CN(Cc1ccc(Cl)c(Cl)c1)C(=O)C(C)(CCN1CCC(N2CCCC2=O)CC1)c1ccc(Cl)c(Cl)c1 (stereo not shown) [Example 82, N-(3,4-Dichloro-benzyl)-2-(3,4-dichloro-phenyl)-2,N-dimethyl-4-[4-(2-oxo-pyrrolidin-1-yl)-piperidin-1-yl]-butyramide] |
| 3.6 | 3.6 | CN(Cc1ccc(Cl)c(Cl)c1)C(=O)C(C)(CCN1CCC(N(C)S(C)(=O)=O)CC1)c1ccc(Cl)c(Cl)c1 (stereo not shown) [Example 48, N-(3,4-Dichloro-benzyl)-2-(3,4-dichloro-phenyl)-4-[4-(methanesulfonyl-methyl-amino)-piperidin-1-yl]-2,N-dimethyl-butyramide] |
| 77.5 | – | CN(Cc1ccc(Cl)c(Cl)c1)C(=O)C(CCN1CCC(NS(C)(=O)=O)CC1)c1ccc(Cl)c(Cl)c1 (stereo not shown) [Example 34, N-(3,4-Dichloro-benzyl)-2-(3,4-dichloro-phenyl)-4-(4-methanesulfonyl-amino-piperidin-1-yl)-N-methyl-butyramide] |
| 1.5 | 1.5 | CC(=O)N(C)C1CCN(CCC(C)(C(=O)N(C)Cc2ccc(F)c(C(F)(F)F)c2)c2ccc(Cl)c(Cl)c2)CC1 (single isomer, unassigned) [Example 122, (R or S)-4-[4-(Acetyl-methyl-amino)-piperidin-1-yl]-2-(3,4-dichloro-phenyl)-N-(4-fluoro-3-trifluoromethyl-benzyl)-2,N-dimethyl-butyramide] |
| 159 | – | CN(Cc1ccccc1Cl)C(=O)C(F)(CCN1CCC(NS(C)(=O)=O)CC1)c1ccc(Cl)c(Cl)c1 (stereo not shown) [Example 68, N-(2-Chloro-benzyl)-2-(3,4-dichloro-phenyl)-2-fluoro-4-(4-methanesulfonyl-amino-piperidin-1-yl)-N-methyl-butyramide] |
| 123 | – | CN(Cc1cccc(F)c1)C(=O)C(C)(CCN1CCC(NS(C)(=O)=O)CC1)c1ccc(Cl)c(Cl)c1 (stereo not shown) [Example 30, 2-(3,4-Dichloro-phenyl)-N-(3-fluoro-benzyl)-4-(4-methanesulfonyl-amino-piperidin-1-yl)-2,N-dimethyl-butyramide] |
| 24 | – | CN(Cc1ccc(Cl)c(Cl)c1)C(=O)C(C)(CCN1CCC(NS(C)(=O)=O)CC1)c1ccc(Cl)c(Cl)c1 (stereo not shown) [Example 10, N-(3,4-Dichloro-benzyl)-2-(3,4-dichloro-phenyl)-4-(4-methanesulfonyl-amino-piperidin-1-yl)-2,N-dimethyl-butyramide] |
| 5.6 | 5.6 | CCCN(C(C)=O)C1CCN(CCC(C)(C(=O)N[C@@H](CO)c2ccc(F)cc2)c2ccc(Cl)c(Cl)c2)CC1 (single isomer, unassigned; epimer 2) [Example 163] |
| 800 | – | CN(Cc1ccc(C(F)(F)F)c(F)c1)C(=O)C(C)(CCN1CCC(NS(C)(=O)=O)CC1)c1ccc(Cl)c(Cl)c1 (single isomer, unassigned) [Example 123, (S or R)-2-(3,4-Dichloro-phenyl)-N-(3-fluoro-4-trifluoromethyl-benzyl)-4-(4-methanesulfonylamino-piperidin-1-yl)-2,N-dimethyl-butyramide] |
| 408 | – | CN(Cc1ccc(Cl)cc1)C(=O)C(CCN1CCC(N2CCCC2=O)CC1)c1ccc(F)cc1 (stereo not shown) [Example 111, N-(4-Chloro-benzyl)-2-(4-fluoro-phenyl)-N-methyl-4-[4-(2-oxo-pyrrolidin-1-yl)-piperidin-1-yl]-butyramide] |
| 149 | – | CN(Cc1ccc(Cl)c(C(F)(F)F)c1)C(=O)C(CCN1CCC(NS(C)(=O)=O)CC1)c1ccc(Cl)c(Cl)c1 (stereo not shown) [Example 35, N-(4-Chloro-3-trifluoromethyl-benzyl)-2-(3,4-dichloro-phenyl)-4-(4-methanesulfonyl-amino-piperidin-1-yl)-N-methyl-butyramide] |
| 4.3 | 4.3 | CN(Cc1ccc(F)c(C(F)(F)F)c1)C(=O)C(C)(CCN1CCC(N(C2CC2)S(C)(=O)=O)CC1)c1ccc(Cl)c(Cl)c1 (stereo not shown) [Example 59, 4-[4-(Cyclopropyl-methanesulfonyl-amino)-piperidin-1-yl]-2-(3,4-dichloro-phenyl)-N-(4-fluoro-3-trifluoromethyl-benzyl)-2,N-dimethyl-butyramide] |
| 1.2 | 1.2 | CCN(C1CCN(CCC(C)(C(=O)N(C)Cc2ccc(Cl)c(Cl)c2)c2ccc(Cl)c(Cl)c2)CC1)S(C)(=O)=O (stereo not shown) [Example 70, N-(3,4-Dichloro-benzyl)-2-(3,4-dichloro-phenyl)-4-[4-(ethyl-methanesulfonyl-amino)-piperidin-1-yl]-2,N-dimethyl-butyramide] |
